From patent publication US20070059385A1, “Safe pharmaceutical composition for treating and preventing cancer and method of use” (priority 2005, published 2007)

Experiment: Metabolism (organ and blood radioactivity) of [^3H]-HHT in P388 mice
Type: in vivo
Details: blood
Protocol: Animals: Adult DBA/2J male mice, 6 to 8 weeks old. All animals weighed approximately 25 g when used in experiments. Each member of which received identical dosed (i.p.) of HHT.
Tumor: P388 leukemic cells induced in mice by inoculation with L1210 or P388 leukemic cells ([…]).
After P388 induced in mice 5 days, 1 mg/kg of [^3H]-HHT (100 μC/mg) was injected to mice. Volumes were 0.01 ml/g body weight. […] The key data of HHT in metabolism process are determined counts per minute (CPM) of [^3H]-HHT in organs. CPM is determined by liquid scintillation counting (LSC). The methods of LSC combined with radioactive of [^3H]-HHT can be determined using a tracer of HHT in organs. After killed animals, organs and blood were obtained from P388 mice. Organs were weighted. 10 mg of organs were digested. 10 ml of scintillation solution (which containing […]) were added to digested solution and determined at LSC. Other processes are similar to the standard method.

COC(=O)C[C@](O)(CCCC(C)(C)O)C(=O)O[C@@H]1C(OC)=C[C@]23CCCN2CCc2cc4c(cc2[C@H]13)OCO4 [[^3H]-HHT]
[^3H]-HHT in blood (1 h): 1820 CPM
[^3H]-HHT in blood (2 h): 1650 CPM
[^3H]-HHT in blood (4 h): 1100 CPM
[^3H]-HHT in blood (8 h): 920 CPM
[^3H]-HHT in blood (16 h): 428 CPM
[^3H]-HHT in blood (24 h): 150 CPM
